According to PMC2860736 (Pharmacological research : the official journal of the …, 2010):
Read-outs that look alike come from different tables or passages of the source.

Key:
COX-2 = conditions: read-out: IC50 COX-2; cited from earlier work
COX-1 [1] = conditions: read-out: IC50 COX-1; cited from earlier work
ovine COX-1 = target: T1, ovine COX-1 (Ovis aries, UniProt P05979); assay: COX functional assay; type: biochemical; conditions: for inhibition at 10 µM: read-out: Inhibition of COX-1 (%) Mean ± std. dev. (N=3); for Inhibition of COX-1 (%) Mean ± std. dev. (N=3): compound 10 μM
T1 sequence (P05979 25-600): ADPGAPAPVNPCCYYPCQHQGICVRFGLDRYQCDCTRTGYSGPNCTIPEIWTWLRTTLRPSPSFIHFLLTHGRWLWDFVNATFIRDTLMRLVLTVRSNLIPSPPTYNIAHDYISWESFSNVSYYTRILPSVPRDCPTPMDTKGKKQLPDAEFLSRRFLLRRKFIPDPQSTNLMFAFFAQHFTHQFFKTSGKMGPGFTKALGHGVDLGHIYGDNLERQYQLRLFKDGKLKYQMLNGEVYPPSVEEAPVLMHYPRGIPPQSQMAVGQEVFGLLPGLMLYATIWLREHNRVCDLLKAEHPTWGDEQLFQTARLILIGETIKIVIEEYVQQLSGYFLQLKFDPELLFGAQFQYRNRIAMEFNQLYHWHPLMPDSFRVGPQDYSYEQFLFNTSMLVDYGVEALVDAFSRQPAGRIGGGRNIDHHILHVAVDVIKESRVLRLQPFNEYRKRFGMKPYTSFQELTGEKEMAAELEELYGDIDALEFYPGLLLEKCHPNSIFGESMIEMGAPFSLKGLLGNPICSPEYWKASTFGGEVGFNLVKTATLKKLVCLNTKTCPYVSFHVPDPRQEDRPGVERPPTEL

human COX-2 = target: T2, human COX-2 (Homo sapiens, UniProt P35354); assay: COX functional assay; type: biochemical; conditions: for Inhibition of COX-2 (%) Mean ± std. dev. (N=3): compound 10 μM; for selectivity for COX-2 (COX-1 IC50 / COX-2 IC50): human COX-2 over COX-1; for COX-2 selectivity (IC50 COX-1 / IC50 COX-2): ratio of IC50 values; for inhibition at 10 µM: read-out: Inhibition of COX-2 (%) Mean ± std. dev. (N=3)
T2 sequence (P35354 18-604): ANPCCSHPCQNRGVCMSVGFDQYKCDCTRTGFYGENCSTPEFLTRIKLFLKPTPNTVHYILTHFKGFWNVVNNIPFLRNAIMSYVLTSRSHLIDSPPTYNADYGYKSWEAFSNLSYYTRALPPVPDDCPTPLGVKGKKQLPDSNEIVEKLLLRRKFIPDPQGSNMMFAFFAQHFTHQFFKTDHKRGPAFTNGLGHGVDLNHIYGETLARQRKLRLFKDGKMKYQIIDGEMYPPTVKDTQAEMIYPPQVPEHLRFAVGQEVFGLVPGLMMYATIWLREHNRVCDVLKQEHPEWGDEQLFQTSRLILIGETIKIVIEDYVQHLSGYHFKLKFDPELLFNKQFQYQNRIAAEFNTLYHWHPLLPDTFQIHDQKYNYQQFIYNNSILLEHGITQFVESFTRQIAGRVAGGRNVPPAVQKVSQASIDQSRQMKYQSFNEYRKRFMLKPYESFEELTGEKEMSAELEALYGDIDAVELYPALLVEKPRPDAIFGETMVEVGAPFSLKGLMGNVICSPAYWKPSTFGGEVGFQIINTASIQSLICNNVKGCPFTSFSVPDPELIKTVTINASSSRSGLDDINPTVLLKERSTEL

COX-1 [2] = conditions: read-out: IC50 COX-1; assay using human platelets; cited from earlier work
ovine COX-2 = assay: Pulsed ultrafiltration LC-MS screening for COX-2 ligands; type: binding; conditions: for binding to COX-2 (result in words): pulsed ultrafiltration LC-MS; for peak enhancement compared to the control chromatograms: standards screened as mixtures, 0.7 μg/mL each, control denatured COX-2
[3] = IC50 COX-1, N=3, mean ± std. dev.
[4] = read-out: IC50 COX-2, N=3, mean ± std. dev.
[5] = IC50 COX-2, N=3, mean ± std. dev.
[6] = read-out: IC50 COX-1, N=3, mean ± std. dev.

SMILES: Oc1ccc(/C=C/c2cc(O)cc(O)c2)cc1 [Resveratrol, reference compound]
- IC50 (COX-2): 0.99 ± 0.4 µM
- IC50 (COX-1 [1]): 0.83 ± 0.44 µM
- IC50 (ovine COX-1; [3]): 0.86 ± 0.1 µM
- inhibition at 10 µM (ovine COX-1): 86 ± 7%

SMILES: CC[C@H](CC[C@@H](C)[C@H]1CC[C@H]2[C@@H]3CC=C4C[C@@H](O)CC[C@]4(C)[C@H]3CC[C@]12C)C(C)C [β-Sitosterol]
- inhibition of COX-2 in the functional assay (result in words) (human COX-2): did not inhibit
- inhibition of COX-1 in the functional assay (result in words) (ovine COX-1): did not inhibit

SMILES: CC(=O)O[C@@H]1CC[C@@]2(C)[C@@H](CC[C@]3(C)[C@@H]2C(=O)C=C2[C@@H]4[C@@H](C)[C@H](C)CC[C@]4(C)CC[C@]23C)[C@@]1(C)C(=O)O [Acetyl-11-keto-β-boswellic acid]
- Inhibition of COX-2 (%) Mean ± std. dev. (N=3) (human COX-2): 23 ± 15%
- IC50 (human COX-2; [4]): 85 ± 20 µM
- IC50 (human COX-2; read-out: IC50 COX-2, N=3, mean ± std. dev., listed as acetyl-11-keto-β-boswellic acid): ≥ 73 µM
- Inhibition of COX-1 (%) Mean ± std. dev. (N=3) (ovine COX-1): 39 ± 5%
- IC50 (COX-1 [2]): 6 µM

SMILES: CC(C)=CC(O)C/C(C)=C/COc1c2ccoc2cc2oc(=O)ccc12 (centres unmarked) [Notopterol]
- inhibition of COX-2 in the functional assay (result in words) (human COX-2): did not inhibit
- inhibition of COX-1 in the functional assay (result in words) (ovine COX-1): did not inhibit

SMILES: CC1(C)[C@@H](O)CC[C@]2(C)[C@H]3C(=O)C=C4[C@@H]5C[C@@](C)(C(=O)O)CC[C@]5(C)CC[C@@]4(C)[C@]3(C)CC[C@@H]12 [Glycyrrhetic acid]
- inhibition of COX-2 in the functional assay (result in words) (human COX-2): did not inhibit
- inhibition of COX-1 in the functional assay (result in words) (ovine COX-1): did not inhibit

SMILES: COc1ccc(-c2cc(=O)c3c(O)cc(O)cc3o2)cc1 [Linarigenin]
- inhibition of COX-2 in the functional assay (result in words) (human COX-2): did not inhibit
- inhibition of COX-1 in the functional assay (result in words) (ovine COX-1): did not inhibit

SMILES: CC1(C)CC[C@]2(C)CC[C@]3(C)C(=CC[C@@H]4[C@@]5(C)CC[C@@H](O)[C@](C)(C(=O)O)[C@@H]5CC[C@]43C)[C@@H]2C1 [α-Boswellic acid]
- inhibition of COX-2 in the functional assay (result in words) (human COX-2): did not inhibit
- inhibition of COX-1 in the functional assay (result in words) (ovine COX-1): did not inhibit

SMILES: C[C@H]1COC2=C1C(=O)C(=O)c1c2ccc2c1CCCC2(C)C [Cryptotanshinone]
- binding to COX-2 (result in words) (ovine COX-2): determined to be COX-2 ligands
- IC50 (human COX-2; [5]): 22 ± 10 µM
- selectivity for COX-2 (COX-1 IC50 / COX-2 IC50) (human COX-2): ≥ 5 fold
- COX-2 selectivity (IC50 COX-1 / IC50 COX-2) (human COX-2): COX-2 specific
- inhibition at 10 µM (human COX-2): 31 ± 20%
- IC50 (ovine COX-1; [3]): > 100 µM
- inhibition at 10 µM (ovine COX-1): 0%

SMILES: COc1cc(/C=C/C(=O)OCCc2ccccc2)ccc1O [Phenethyl trans-ferulate]
- peak enhancement compared to the control chromatograms (ovine COX-2): ≥ 40%
- Inhibition of COX-2 (%) Mean ± std. dev. (N=3) (human COX-2): 25 ± 10%
- COX-2 selectivity (IC50 COX-1 / IC50 COX-2) (human COX-2): 0.58
- COX-2 selectivity (IC50 COX-1 / IC50 COX-2) (human COX-2; listed as phenethyl-trans-ferulate): inhibited COX-1 and COX-2 equally
- IC50 (human COX-2; [4]): 31 ± 15 µM
- Inhibition of COX-1 (%) Mean ± std. dev. (N=3) (ovine COX-1): 44 ± 3%
- IC50 (ovine COX-1; [6]): 18 ± 5 µM

SMILES: C=C(C)[C@@H]1CC[C@]2(C(=O)O)CC[C@]3(C)[C@H](CC[C@@H]4[C@@]5(C)CC[C@H](O)C(C)(C)[C@@H]5CC[C@]43C)[C@@H]12 [Betulinic acid]
- inhibition of COX-2 in the functional assay (result in words) (human COX-2): almost no inhibition of COX-2
- IC50 (human COX-2; [5]): > 100 µM
- COX-2 selectivity (IC50 COX-1 / IC50 COX-2) (human COX-2): COX-1 specific
- inhibition at 10 µM (human COX-2): 33 ± 5%
- IC50 (ovine COX-1; [3]): 20 ± 3 µM
- inhibition at 10 µM (ovine COX-1): 32 ± 5%

SMILES: O=C1C[C@@H](c2ccc(O)cc2)Oc2cc(O)ccc21 [Liquiritigenin]
- binding to COX-2 (result in words) (ovine COX-2): did not show sufficient binding to COX-2

SMILES: CC(C)=CCC/C(C)=C/Cc1cc2ccc(=O)oc2cc1O [Ostruthin]
- inhibition of COX-2 in the functional assay (result in words) (human COX-2): did not inhibit
- inhibition of COX-1 in the functional assay (result in words) (ovine COX-1): did not inhibit

SMILES: CC(=O)O[C@@H]1CC[C@@]2(C)[C@@H](CC[C@]3(C)[C@@H]2CC=C2[C@@H]4[C@@H](C)[C@H](C)CC[C@]4(C)CC[C@]23C)[C@@]1(C)C(=O)O [Acetyl-β-boswellic acid]
- Inhibition of COX-2 (%) Mean ± std. dev. (N=3) (human COX-2): 25 ± 6%
- IC50 (human COX-2; [4]): 73 ± 20 µM
- IC50 (human COX-2; read-out: IC50 COX-2, N=3, mean ± std. dev., listed as acetyl-β-boswellic acid): ≥ 73 µM
- Inhibition of COX-1 (%) Mean ± std. dev. (N=3) (ovine COX-1): 31 ± 10%

SMILES: CC(=O)O[C@@H]1CC[C@@]2(C)[C@@H](CC[C@]3(C)[C@@H]2CC=C2[C@@H]4CC(C)(C)CC[C@]4(C)CC[C@]23C)[C@@]1(C)C(=O)O [Acetyl-α-boswellic acid]
- Inhibition of COX-2 (%) Mean ± std. dev. (N=3) (human COX-2): 19 ± 5%
- IC50 (human COX-2; [4]): > 100 µM
- IC50 (human COX-2; read-out: IC50 COX-2, N=3, mean ± std. dev., listed as acetyl-α-boswellic acid): ≥ 73 µM
- Inhibition of COX-1 (%) Mean ± std. dev. (N=3) (ovine COX-1): 74 ± 3%

SMILES: C[C@H]1[C@H](C)CC[C@]2(C)CC[C@]3(C)C(=CC[C@@H]4[C@@]5(C)CC[C@@H](O)[C@](C)(C(=O)O)[C@@H]5CC[C@]43C)[C@H]12 [β-Boswellic acid]
- IC50 (human COX-2; [5]): > 100 µM
- inhibition at 10 µM (human COX-2): 17 ± 15%
- inhibition at 10 µM (ovine COX-1): 42 ± 15%

SMILES: O=C(/C=C/c1ccc(O)cc1)c1ccc(O)cc1O [Isoliquiritigenin]
- peak enhancement compared to the control chromatograms (ovine COX-2): ≥ 40%
- inhibition at 10 µM (human COX-2): 23 ± 3%

SMILES: CCC/C=C1\OC(=O)C2=C1CC[C@H]1[C@H]3C=C4C(=O)O/C(=C\CCC)[C@@]4(CC3)[C@@H]21 [Senkyunolide O]
- binding to COX-2 (result in words) (ovine COX-2): determined to be COX-2 ligands
- Inhibition of COX-2 (%) Mean ± std. dev. (N=3) (human COX-2): 52 ± 20%
- selectivity for COX-2 (COX-1 IC50 / COX-2 IC50) (human COX-2): ≥ 5 fold
- COX-2 selectivity (IC50 COX-1 / IC50 COX-2) (human COX-2): 5.00
- IC50 (human COX-2; [4]): 5 ± 5 µM
- Inhibition of COX-1 (%) Mean ± std. dev. (N=3) (ovine COX-1): 0 ± 5%
- IC50 (ovine COX-1; [6]): 25 ± 10 µM

SMILES: C=C(C)[C@@H]1CC[C@]2(C)[C@H](CC=C3[C@@H]4[C@@H](C)[C@H](C)CC[C@]4(C)CC[C@]32C)[C@@]1(C)CCC(=O)O [Roburic acid]
- Inhibition of COX-2 (%) Mean ± std. dev. (N=3) (human COX-2): 45 ± 5%
- IC50 (human COX-2; [4]): 9 ± 3 µM
- Inhibition of COX-1 (%) Mean ± std. dev. (N=3) (ovine COX-1): 33 ± 8%
- IC50 (ovine COX-1; [6]): 5 ± 2 µM

SMILES: CC(C)=CCOc1c2ccoc2cc2oc(=O)ccc12 [Isoimperatorin]
- inhibition of COX-2 in the functional assay (result in words) (human COX-2): did not inhibit
- inhibition of COX-1 in the functional assay (result in words) (ovine COX-1): did not inhibit
